According to patent publication US10800782B2, “Inhibitors of cellular metabolic processes” (Agios Pharmaceuticals, Inc., priority 2016, dated 2020):

These compounds were tested against T1, MAT2A (Homo sapiens, UniProt P31153) (assay: MAT2A biochemical assay (colorimetric inorganic phosphate detection, PiColorLock)). Conditions: recombinant His6-tagged MAT2A 1 μg/ml; 60 minutes preincubation at 25° C.; L-Met 80 μM, ATP 100 μM; 60 minutes reaction; read at 623 nm; read-out: MAT2A Inhibition Score.
T1 construct: His6; made in house; host or cells: SF9 insect cells
T1 sequence (P31153 whole entry): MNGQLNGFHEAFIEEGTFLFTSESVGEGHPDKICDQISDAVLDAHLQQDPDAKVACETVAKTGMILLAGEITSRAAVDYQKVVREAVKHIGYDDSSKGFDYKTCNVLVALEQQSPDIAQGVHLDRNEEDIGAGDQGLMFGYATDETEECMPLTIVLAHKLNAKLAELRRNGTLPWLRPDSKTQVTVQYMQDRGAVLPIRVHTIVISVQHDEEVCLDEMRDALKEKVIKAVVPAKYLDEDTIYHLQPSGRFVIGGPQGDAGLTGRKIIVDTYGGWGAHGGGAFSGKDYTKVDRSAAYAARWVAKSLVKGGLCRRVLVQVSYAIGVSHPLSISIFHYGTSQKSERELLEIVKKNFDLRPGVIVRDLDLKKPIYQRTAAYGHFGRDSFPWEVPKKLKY
Method in brief: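 His6-tagged human MAT2A (SF9-expressed, 1 μg/ml) converting L-Met and ATP to SAM in Tris pH 8.0, 50 mM KCl, 15 mM MgCl2, 300 uM EDTA, 0.005% BSA; 60 min at room temperature. Released phosphate detected colorimetrically with malachite green phosphomolybdate. Ten-point, three-fold compound dilution series.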

Row | Compound | IC50 [µM]
1 | COc1ccc(-c2c(Nc3ncnc(O)n3)[nH]c3c(-c4ccccc4)c(-c4ccccc4)nn3c2=O)cc1 [Compound 136, 5-((4-hydroxy-1,3,5-triazin-2-yl)amino)-6-(4-methoxyphenyl)-2,3-diphenylpyrazolo[1,5-a]pyrimidin-7(4H)-one] | < 0.1
2 | COc1ccc(-c2c(Nc3cnncn3)[nH]c3c(C4=CCCCC4)c(-c4ccccc4)nn3c2=O)cc1 [Compound 162, 5-((1,2,4-triazin-5-yl)amino)-3-(cyclohex-1-en-1-yl)-6-(4-methoxyphenyl)-2-phenylpyrazolo[1,5-a]pyrimidin-7(4H)-one] | < 0.1
3 | COc1ccc(-c2c(Nc3ccccn3)[nH]c3c(-c4ccccc4)c(-c4ccccn4)nn3c2=O)cc1 [Compound 180, 6-(4-methoxyphenyl)-3-phenyl-2-(pyridin-2-yl)-5-(pyridin-2-ylamino)pyrazolo[1,5-a]pyrimidin-7(4H)-one] | < 0.1
4 | O=c1c(-c2ccc3nccnc3c2)c(Nc2ccn[nH]2)[nH]c2c(C3=CCCCC3)c(-c3ccccc3)nn12 [Compound 191, 5-((1H-pyrazol-5-yl)amino)-3-(cyclohex-1-en-1-yl)-2-phenyl-6-(quinoxalin-6-yl)pyrazolo[1,5-a]pyrimidin-7(4H)-one] | < 0.1
5 | COc1ccc(-c2c(Nc3cc(C#N)ccn3)[nH]c3c(-c4ccccc4)c(-c4ccccc4)nn3c2=O)cc1 [Compound 114, 2-(6-(4-methoxyphenyl)-7-oxo-2,3-diphenyl-4,7-dihydropyrazolo[1,5-a]pyrimidin-5-ylamino)isonicotinonitrile] | < 0.1
6 | COc1ccc(-c2c(Nc3cscn3)[nH]c3c(-c4ccccc4)c(-c4ccccc4)nn3c2=O)cc1 [Compound 192, 6-(4-methoxyphenyl)-2,3-diphenyl-5-(thiazol-4-ylamino)pyrazolo[1,5-a]pyrimidin-7(4H)-one] | < 0.1
7 | Cc1[nH]c2c(C3=CCCCC3)c(-c3ccccc3)nn2c(=O)c1-c1ccc2nccnc2c1 [Compound 208, 3-(cyclohex-1-en-1-yl)-5-methyl-2-phenyl-6-(quinoxalin-6-yl)pyrazolo[1,5-a]pyrimidin-7(4H)-one] | < 0.1
8 | Cc1nc2ccc(-c3c(Nc4ccccn4)[nH]c4c(-c5ccccc5)c(-c5ccccc5)nn4c3=O)cc2s1 [Compound 196, 6-(2-methylbenzo[d]thiazol-6-yl)-2,3-diphenyl-5-(pyridin-2-ylamino)pyrazolo[1,5-a]pyrimidin-7(4H)-one] | < 0.1
9 | COc1ccc(-c2c(Nc3ccncn3)[nH]c3c(-c4ccccc4)c(-c4ccccc4)nn3c2=O)cc1 [Compound 116, 6-(4-methoxyphenyl)-2,3-diphenyl-5-(pyrimidin-4-ylamino)pyrazolo[1,5-a]pyrimidin-7(4H)-one] | < 0.1
10 | COc1ccc(-c2c(Nc3cccnn3)[nH]c3c(-c4ccccc4)c(-c4ccccc4)nn3c2=O)cc1 [Compound 101, 6-(4-methoxyphenyl)-2,3-diphenyl-5-(pyridazin-3-ylamino)pyrazolo[1,5-a]pyrimidin-7(4H)-one] | < 0.1
11 | COc1ccc(-c2c(Nc3ccccn3)[nH]c3c(-c4ccccc4F)c(-c4ccccc4)nn3c2=O)cc1 [Compound 179, 3-(2-fluorophenyl)-6-(4-methoxyphenyl)-2-phenyl-5-(pyridin-2-ylamino)pyrazolo[1,5-a]pyrimidin-7(4H)-one] | < 0.1
12 | COc1ccc(-c2c(Nc3nncs3)[nH]c3c(-c4ccccc4)c(-c4ccccc4)nn3c2=O)cc1 [Compound 144, 5-((1,3,4-thiadiazol-2-yl)amino)-6-(4-methoxyphenyl)-2,3-diphenylpyrazolo[1,5-a]pyrimidin-7(4H)-one] | < 0.1
13 | COc1ccc(-c2c(Nc3ccccn3)[nH]c3c(N4CCCCC4)c(-c4ccccc4)nn3c2=O)cc1 [Compound 181, 6-(4-methoxyphenyl)-2-phenyl-3-(piperidin-1-yl)-5-(pyridin-2-ylamino)pyrazolo[1,5-a]pyrimidin-7(4H)-one] | < 0.1
14 | COc1ccc(-c2c(Nc3ccc(O)cn3)[nH]c3c(-c4ccccc4)c(-c4ccccc4)nn3c2=O)cc1 [Compound 108, 5-(5-hydroxypyridin-2-ylamino)-6-(4-methoxyphenyl)-2,3-diphenylpyrazolo[1,5-a]pyrimidin-7(4H)-one] | < 0.1

Results, then the compound that gave them:

Row | IC50 [µM] | Compound
15 | 0.1 to 1 | CCC(=O)Nc1[nH]c2c(-c3ccccc3)c(-c3ccccc3)nn2c(=O)c1-c1ccc2ncccc2c1 [Compound 327, N-(7-oxo-2,3-diphenyl-6-(quinolin-6-yl)-4,7-dihydropyrazolo[1,5-a]pyrimidin-5-yl)propionamide]
16 | 0.1 to 1 | O=c1c(-c2ccc3ncccc3c2)c(CO)[nH]c2c(-c3ccccc3)c(-c3ccccc3)nn12 [Compound 319, 5-(hydroxymethyl)-2,3-diphenyl-6-(quinolin-6-yl)pyrazolo[1,5-a]pyrimidin-7(4H)-one]
17 | 0.1 to 1 | COc1ccc(-c2c(C#N)[nH]c3c(-c4ccccc4)c(-c4ccccc4)nn3c2=O)cc1 [Compound 314, 6-(4-methoxyphenyl)-7-oxo-2,3-diphenyl-4,7-dihydropyrazolo[1,5-a]pyrimidine-5-carbonitrile]
18 | 0.1 to 1 | O=C1CN(Cc2[nH]c3c(-c4ccccc4)c(-c4ccccc4)nn3c(=O)c2-c2ccc3ncccc3c2)C(=O)N1 [Compound 323, 1-((7-oxo-2,3-diphenyl-6-(quinolin-6-yl)-4,7-dihydropyrazolo[1,5-a]pyrimidin-5-yl)methyl)imidazolidine-2,4-dione]
19 | < 0.1 | Cc1[nH]c2c(C3=CCCCO3)c(-c3ccccc3)nn2c(=O)c1-c1ccc2ncccc2c1 [Compound 217, 3-(3,4-dihydro-2H-pyran-6-yl)-5-methyl-2-phenyl-6-(quinolin-6-yl)pyrazolo[1,5-a]pyrimidin-7(4H)-one]
20 | 1 to 10 | Cc1[nH]c2c(N3CCCCC3)c(-c3ccccc3)nn2c(=O)c1-c1cc[nH]c(=O)c1 [Compound 303, 5-methyl-6-(2-oxo-1,2-dihydropyridin-4-yl)-2-phenyl-3-(piperidin-1-yl)pyrazolo[1,5-a]pyrimidin-7(4H)-one]
21 | < 0.1 | Cc1[nH]c2c(N3CCCCC3)c(-c3ccccc3)nn2c(=O)c1-c1ccc(O)cc1 [Compound 262, 6-(4-hydroxyphenyl)-5-methyl-2-phenyl-3-(piperidin-1-yl)pyrazolo[1,5-a]pyrimidin-7(4H)-one]
22 | 0.1 to 1 | Cc1[nH]c2c(N3CCCCC3)c(-c3ccccc3)nn2c(=O)c1-c1ccc(N)cc1 [Compound 307, 6-(4-aminophenyl)-5-methyl-2-phenyl-3-(piperidin-1-yl)pyrazolo[1,5-a]pyrimidin-7(4H)-one]
23 | 1 to 10 | Cc1[nH]c2c(N3CCCCC3)c(-c3ccccc3)nn2c(=O)c1-c1ccc(S(C)(=O)=O)cc1 [Compound 306, 5-methyl-6-(4-(methylsulfonyl)phenyl)-2-phenyl-3-(piperidin-1-yl)pyrazolo[1,5-a]pyrimidin-7(4H)-one]
24 | 1 to 10 | O=C1CNC(=O)N1Cc1[nH]c2c(-c3ccccc3)c(-c3ccccc3)nn2c(=O)c1-c1ccc2ncccc2c1 [Compound 322, 3-((7-oxo-2,3-diphenyl-6-(quinolin-6-yl)-4,7-dihydropyrazolo[1,5-a]pyrimidin-5-yl)methyl)imidazolidine-2,4-dione]
25 | < 0.1 | O=C(NCc1[nH]c2c(-c3ccccc3)c(-c3ccccc3)nn2c(=O)c1-c1ccc2ncccc2c1)C(F)(F)F [Compound 263, 2,2,2-trifluoro-N-((7-oxo-2,3-diphenyl-6-(quinolin-6-yl)-4,7-dihydropyrazolo[1,5-a]pyrimidin-5-yl)methyl)acetamide]
